# Laboratory results as given in US20200253877A1, “GEMCABENE, PHARMACEUTICALLY ACCEPTABLE SALTS THEREOF, COMPOSITIONS THEREOF AND METHODS OF USE THEREFOR” (NEUROBO PHARMACEUTICALS, INC., priority 2018, published 2020).
# Legend:
# [1] = Effect of steady-state gemcabene 600 mg on single-dose pharmacokinetics of ON 1/35 (ethinyl estradiol/norethindrone) in healthy female subjects; assay type: in vivo, human; details: 600 mg daily at steady state; single dose ON 1/35
# Method: An open-label, two-sequence, cross-over study to assess the steady-state effects of gemcabene calcium on the single-dose pharmacokinetics (PK) of oral contraceptive tablets in healthy female subjects was conducted with 300 mg tablets containing gemcabene calcium salt hydrate Crystal Form 1 having PSD90 of 52 μm (film-coated Tablet F).
# The population for this study was generally healthy, adult female subjects of childbearing potential (≥18 to ≤35 years of age). This population supports the overall objective of the study to evaluate the effect of 600 mg of gemcabene calcium salt hydrate Crystal Form 1 having PSD90 of 52 μm at steady-state on the PK of a single dose of ON 1/35 (Ortho Novum 1/35; combined ethinyl estradiol/norethindrone oral contraceptive). The primary objective of this study was to assess the effect of daily 600 mg of gemcabene calcium salt hydrate Crystal Form 1 having PSD90 of 52 μm at steady-state on the pharmacokinetics (PK) of ON 1/35. The secondary objectives of this study were to assess the safety and tolerability of daily gemcabene 600 mg in combination with a single-dose ON 1/35 and to assess the steady-state PK of 600 mg of gemcabene calcium salt hydrate Crystal Form 1 having PSD90 of 52 μm (film-coated Tablet F×2). […]
# [2] = Stability study of gemcabene calcium salt forms (XRPD form, HPLC/CAD purity); assay type: physicochemical
# Method: The stability studies were carried out using storage conditions at a) 40° C. and 75% relative humidity (RH), b) at 80° C. and c) at ambient temperature (approximately 22° C.). After 7 days and 14 days, the samples were removed from the relevant storage conditions and initially analyzed by XRPD to identify any form changes. The samples were then analyzed by HPLC/CAD (high-performance liquid chromatography equipped with a charged aerosol detector) for purity, with all solid purity values given on a w/w % basis.
# [3] = Steady-state gemcabene pharmacokinetics in familial hypercholesterolemia patients (300, 600, 900 mg/day); assay type: in vivo, human; details: for Tlast: after 28 daily oral doses (film-coated Tablet D), FH patients, median
# Method: Additional (trough) samples were collected pre-dose on Day 14, Day 42, Day 70, and at the Early Termination Visit (if applicable). Plasma from these samples were analyzed for gemcabene concentrations and the data used for PK analysis. […] PK parameter estimates were derived by standard non-compartmental analysis methods using a validated installation of Phoenix® WinNonlin® version 6.4. The actual sampling times were used in the PK parameter calculations. All plasma concentrations reported as missing were treated as missing. […] The following gemcabene PK parameters were calculated for each patient from the plasma concentration-time data: AUClast and AUC(0-24) were calculated by numeric integration using the trapezoidal rule with linear up and log down interpolation. […] The individual patient and gemcabene concentration-time data are listed using the number of significant digits or decimal places provided by the bioanalytical lab and nominal sample times, and summarized descriptively in tabular formats by dose level, and visit (for trough samples).
# [4] = 300-900 mg/day, dose proportionality
# [5] = dose range 300 mg/day to 900 mg/day
smiles,measurement,setting,value
"CC(C)(CCCCOCCCCC(C)(C)C(=O)O)C(=O)O.[Ca] [6-(5-Carboxy-5-methyl-hexyloxy)-2,2-dimethylhexanoic acid calcium]",drug-drug interaction with ethinyl estradiol and norethindrone,[1],mild drug-drug interaction
same,change in form (XRPD),"[2]; 2-week study, 40° C./75% RH, 80° C. and ambient",No change in the form
same,Form (XRPD),"[2]; 40° C./75% RH, 1 Week",Form 1
same,Purity,"[2]; 40° C./75% RH, 1 Week",80.8%
same,Form (XRPD),"[2]; 40° C./75% RH, 2 Weeks",Form 1
same,Purity,"[2]; 40° C./75% RH, 2 Weeks",84.2%
same,Form (XRPD),"[2]; 80° C., 1 Week",Form 1
same,Purity,"[2]; 80° C., 1 Week",80.6%
same,Form (XRPD),"[2]; 80° C., 2 Weeks",Form 1
same,Purity,"[2]; 80° C., 2 Weeks",83.9%
same,Form (XRPD),"[2]; Ambient, 1 Week",Form 1
same,Purity,"[2]; Ambient, 1 Week",80.7%
same,Form (XRPD),"[2]; Ambient, 2 Weeks",Form 1
same,Purity,"[2]; Ambient, 2 Weeks",84.6%
same,purity (HPLC/CAD) compared to the starting form,"[2]; after 2 weeks storage, all 3 storage conditions",drop in purity
same,Starting Purity,"[2]; before storage, HPLC/CAD, w/w %",87.5%
"CC(C)(CCCCOCCCCC(C)(C)C(=O)O)C(=O)O [gemcabene, 6-(5-carboxy-5-methyl-hexyloxy)-2,2-dimethyl-hexanoic acid]",Tlast,"[3]; 300 mg/day, n = 8",25.2 h
same,Tlast,"[3]; 600 mg/day, n = 8",24.6 h
same,Tlast,"[3]; 900 mg/day, n = 7",23.8 h
same,"upper limit of the 95% CI of slope, log AUClast vs log dose",[3]; [4],0.9993
same,"upper limit of the 95% CI of slope, log Cmax vs log dose",[3]; [4],0.9767
same,time to attain steady state,"[3]; daily dosing, individual trough concentrations",≤ 14 days
same,AUC(0-24) dose proportionality,[3]; [5],increased dose proportionally
same,Cmax dose proportionality,[3]; [5],slightly less than dose proportional
